Test results as given in patent US20240124412A1, “IKAROS ZINC FINGER FAMILY DEGRADERS AND USES THEREOF” (Gilead Sciences, Inc., priority 2021, published 2024).
Each block holds one molecule with its values, some of them ahead of it.

Key:
IKZF1 = biological target: T1, IKZF1 (Homo sapiens, UniProt Q13422+Q96SW2); assay: HiBiT protein tagging assay, in vitro IKZF1 degradation (HEK293); assay type: cell-based; details: HEK293, 18-24 hr incubation, normalized to DMSO control; for Dmax: read-out: IKZF1 Dmax (maximum degradation at the highest concentration tested); for DC50: read-out: IKZF1 EC50
T1 construct: expressed in transfected cells
Method in brief: (§1)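 Flp-In T-REx HEK293 pools stably expressing C-terminal HiBiT-tagged IKZF1 or IKZF2 were induced overnight with 1 μg/ml doxycycline. Cells were then treated with serially diluted compound for 18-24 hr at 37 °C and read by Nano-Glo lytic luminescence. Data were normalized to 0.5% DMSO as POC; EC50 and Dmax (maximum degradation at highest concentration tested) reported.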

IKZF2 = biological target: T2, IKZF2 (Homo sapiens, UniProt Q96SW2+Q9UKS7); assay: HiBiT protein tagging assay, in vitro IKZF2 degradation (HEK293); assay type: cell-based; details: HEK293, 18-24 hr incubation, normalized to DMSO control; for Dmax: HEK293, HiBiT assay, read-out: IKZF2 Dmax (maximum degradation at the highest concentration tested); for DC50: HiBiT assay, read-out: IKZF2 EC50
T2 construct: expressed in transfected cells
Method in brief: as §1

T1 sequence (Q13422 whole entry): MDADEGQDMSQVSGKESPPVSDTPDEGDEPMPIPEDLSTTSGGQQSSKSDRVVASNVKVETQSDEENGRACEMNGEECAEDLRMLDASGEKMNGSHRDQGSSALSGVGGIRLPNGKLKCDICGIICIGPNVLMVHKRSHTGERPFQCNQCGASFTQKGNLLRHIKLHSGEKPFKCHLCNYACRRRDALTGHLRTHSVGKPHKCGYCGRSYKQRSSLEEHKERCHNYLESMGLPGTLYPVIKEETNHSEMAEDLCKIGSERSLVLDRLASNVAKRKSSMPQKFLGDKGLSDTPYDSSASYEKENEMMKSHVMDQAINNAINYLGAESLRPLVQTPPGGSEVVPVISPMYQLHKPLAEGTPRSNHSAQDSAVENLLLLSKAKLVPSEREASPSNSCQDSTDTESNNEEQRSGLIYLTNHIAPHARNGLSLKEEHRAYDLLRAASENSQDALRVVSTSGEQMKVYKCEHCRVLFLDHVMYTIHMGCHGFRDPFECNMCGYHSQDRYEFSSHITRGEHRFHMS
T1 sequence (Q96SW2 whole entry): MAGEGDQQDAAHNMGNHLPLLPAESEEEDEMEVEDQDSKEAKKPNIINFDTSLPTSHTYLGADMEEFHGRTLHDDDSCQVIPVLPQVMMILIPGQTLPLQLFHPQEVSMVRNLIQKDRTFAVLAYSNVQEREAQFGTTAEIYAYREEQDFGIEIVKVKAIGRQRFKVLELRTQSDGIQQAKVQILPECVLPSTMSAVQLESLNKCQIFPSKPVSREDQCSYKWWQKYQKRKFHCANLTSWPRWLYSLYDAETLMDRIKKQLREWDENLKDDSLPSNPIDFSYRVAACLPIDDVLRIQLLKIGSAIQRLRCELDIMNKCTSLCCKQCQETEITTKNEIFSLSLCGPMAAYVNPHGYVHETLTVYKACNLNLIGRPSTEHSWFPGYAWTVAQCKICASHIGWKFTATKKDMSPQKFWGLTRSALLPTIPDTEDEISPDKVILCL
T1 sequence (Q16531 whole entry partner): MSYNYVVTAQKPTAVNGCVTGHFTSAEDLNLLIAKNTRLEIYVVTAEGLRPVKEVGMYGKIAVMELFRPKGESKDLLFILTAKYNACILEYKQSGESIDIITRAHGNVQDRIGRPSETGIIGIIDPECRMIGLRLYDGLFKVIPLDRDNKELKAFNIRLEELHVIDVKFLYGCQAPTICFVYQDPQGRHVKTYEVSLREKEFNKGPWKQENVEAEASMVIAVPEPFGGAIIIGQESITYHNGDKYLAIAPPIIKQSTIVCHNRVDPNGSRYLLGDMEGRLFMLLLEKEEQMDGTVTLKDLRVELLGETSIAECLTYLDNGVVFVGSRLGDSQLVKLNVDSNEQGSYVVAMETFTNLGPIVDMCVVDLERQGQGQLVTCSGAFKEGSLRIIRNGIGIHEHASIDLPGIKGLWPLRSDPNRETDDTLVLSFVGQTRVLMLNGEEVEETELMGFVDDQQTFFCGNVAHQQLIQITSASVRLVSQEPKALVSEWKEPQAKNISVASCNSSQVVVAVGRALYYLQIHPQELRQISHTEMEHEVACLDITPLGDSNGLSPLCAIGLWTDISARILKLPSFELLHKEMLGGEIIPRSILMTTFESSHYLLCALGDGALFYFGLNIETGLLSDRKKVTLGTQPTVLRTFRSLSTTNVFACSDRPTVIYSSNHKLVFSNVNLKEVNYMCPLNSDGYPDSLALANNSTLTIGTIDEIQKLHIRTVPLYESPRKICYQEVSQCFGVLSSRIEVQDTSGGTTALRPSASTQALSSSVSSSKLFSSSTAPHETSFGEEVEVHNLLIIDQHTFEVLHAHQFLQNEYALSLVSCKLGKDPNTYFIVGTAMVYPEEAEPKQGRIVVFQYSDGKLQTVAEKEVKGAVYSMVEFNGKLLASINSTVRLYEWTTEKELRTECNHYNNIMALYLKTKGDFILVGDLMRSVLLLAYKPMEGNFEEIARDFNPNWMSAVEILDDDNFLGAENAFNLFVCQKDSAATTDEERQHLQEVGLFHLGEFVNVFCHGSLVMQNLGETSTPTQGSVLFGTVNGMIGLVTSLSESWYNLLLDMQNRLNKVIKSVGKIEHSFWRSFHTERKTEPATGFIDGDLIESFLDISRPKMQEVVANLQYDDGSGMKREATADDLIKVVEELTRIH
T2 sequence (Q9UKS7 1-500 isoform Q9UKS7-2): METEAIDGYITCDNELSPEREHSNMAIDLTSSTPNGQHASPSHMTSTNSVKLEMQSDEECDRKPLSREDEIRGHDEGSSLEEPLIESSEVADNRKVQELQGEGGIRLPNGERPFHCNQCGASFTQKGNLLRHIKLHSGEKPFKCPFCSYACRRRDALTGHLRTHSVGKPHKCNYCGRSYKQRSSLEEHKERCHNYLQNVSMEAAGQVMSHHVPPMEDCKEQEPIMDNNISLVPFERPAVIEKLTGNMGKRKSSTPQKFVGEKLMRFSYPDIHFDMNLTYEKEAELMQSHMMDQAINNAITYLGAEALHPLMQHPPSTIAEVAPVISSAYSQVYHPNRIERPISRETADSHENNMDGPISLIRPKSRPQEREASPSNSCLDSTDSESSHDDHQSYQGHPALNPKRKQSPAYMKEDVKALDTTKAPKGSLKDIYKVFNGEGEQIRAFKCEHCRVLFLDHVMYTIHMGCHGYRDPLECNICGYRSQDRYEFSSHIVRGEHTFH
T2 sequence (Q96SW2 whole entry): as the sequence (Q96SW2 whole entry) above
T2 sequence (Q16531 whole entry partner): as the sequence (Q16531 whole entry partner) above

Dmax (IKZF1): 45%
DC50 (IKZF1): 762 nM
Dmax (IKZF2): 67%
DC50 (IKZF2): 1300 nM
Structure (SMILES): O=C1CCC(N2Cc3cc(CN[C@H]4CCC[C@@H](O)C4)ccc3C2=O)C(=O)N1 (some centres unmarked) [Example 81]

DC50 (IKZF1): > 10000 nM
Dmax (IKZF2): 71%
DC50 (IKZF2): 1300 nM
Structure (SMILES): O=C1CCC(N2Cc3cc(CN[C@@H]4CCC[C@H](O)C4)ccc3C2=O)C(=O)N1 (some centres unmarked) [Example 82]

Dmax (IKZF1): 42%
DC50 (IKZF1): 84 nM
Dmax (IKZF2): 69%
DC50 (IKZF2): 106 nM
Structure (SMILES): O=C1CCC(N2Cc3cc(CNC4CCC5(CCCCC5)CC4)ccc3C2=O)C(=O)N1 (centres unmarked) [Example 83]

Dmax (IKZF1): 55%
DC50 (IKZF1): 64 nM
Dmax (IKZF2): 79%
DC50 (IKZF2): 46 nM
Structure (SMILES): O=C1CCC(N2Cc3cc(CNC4CCC5(CCCC5)CC4)ccc3C2=O)C(=O)N1 (centres unmarked) [Example 84]

Dmax (IKZF1): 44%
DC50 (IKZF1): 117 nM
Dmax (IKZF2): 81%
DC50 (IKZF2): 114 nM
Structure (SMILES): O=C1CCC(N2Cc3cc(CN[C@H]4CC[C@@H](C(F)(F)F)CC4)ccc3C2=O)C(=O)N1 (some centres unmarked) [Example 85]

Dmax (IKZF1): 64%
DC50 (IKZF1): 297 nM
Dmax (IKZF2): 91%
DC50 (IKZF2): 296 nM
Structure (SMILES): O=C1CCC(N2Cc3cc(CNC4CCC5(CCOCC5)CC4)ccc3C2=O)C(=O)N1 (centres unmarked) [Example 88]

Dmax (IKZF1): 42%
DC50 (IKZF1): 127 nM
Dmax (IKZF2): 76%
DC50 (IKZF2): 139 nM
Structure (SMILES): C[C@H]1CC[C@@H](NCc2ccc3c(c2)CN(C2CCC(=O)NC2=O)C3=O)CC1 (some centres unmarked) [Example 89]

Dmax (IKZF1): 88%
DC50 (IKZF1): 30 nM
Dmax (IKZF2): 92%
DC50 (IKZF2): 95 nM
Structure (SMILES): O=C1CCC(N2Cc3cc(CN[C@@H]4CCC[C@H](Nc5ccccc5)C4)ccc3C2=O)C(=O)N1 (some centres unmarked) [Example 90]

Dmax (IKZF1): 61%
DC50 (IKZF1): 16 nM
Dmax (IKZF2): 85%
DC50 (IKZF2): 41 nM
Structure (SMILES): O=C1CCC(N2Cc3cc(CN[C@@H]4CCC[C@H](Oc5ccccc5)C4)ccc3C2=O)C(=O)N1 (some centres unmarked) [Example 92]

DC50 (IKZF1): > 10000 nM
Dmax (IKZF2): 55%
DC50 (IKZF2): 178 nM
Structure (SMILES): O=C1CCC(N2Cc3cc(CN[C@@H]4CC5CCC4CC5)ccc3C2=O)C(=O)N1 (stereo partly drawn) [Example 94, 3-(5-((((R)-bicyclo[2.2.2]octan-2-yl)amino)methyl)-1-oxoisoindolin-2-yl)piperidine-2,6-dione]

Second part, the molecule before the results:

Structure (SMILES): CO[C@H]1CC[C@@H](NCc2ccc3c(c2)CN(C2CCC(=O)NC2=O)C3=O)CC1 (some centres unmarked) [Example 86]
Dmax (IKZF1): 73%
DC50 (IKZF1): 70 nM
Dmax (IKZF2): 83%
DC50 (IKZF2): 123 nM

Structure (SMILES): N#C[C@H]1CC[C@@H](NCc2ccc3c(c2)CN(C2CCC(=O)NC2=O)C3=O)CC1 (some centres unmarked) [Example 87]
Dmax (IKZF1): 86%
DC50 (IKZF1): 84 nM
Dmax (IKZF2): 89%
DC50 (IKZF2): 182 nM

Structure (SMILES): O=C1CCC(N2Cc3cc(CN[C@H]4CCC[C@@H](Nc5ccccc5)C4)ccc3C2=O)C(=O)N1 (some centres unmarked) [Example 91]
Dmax (IKZF1): 63%
DC50 (IKZF1): 116 nM
Dmax (IKZF2): 73%
DC50 (IKZF2): 333 nM

Structure (SMILES): N#CC1CCCC(NCc2ccc3c(c2)CN(C2CCC(=O)NC2=O)C3=O)C1 (stereo not drawn) [Example 93, (1,3-trans)-3-(((2-(2,6-dioxopiperidin-3-yl)-1-oxoisoindolin-5-yl)methyl)amino)cyclohexane-1-carbonitrile]
Dmax (IKZF1): 29%
DC50 (IKZF1): 252 nM
Dmax (IKZF2): 59%
DC50 (IKZF2): 26 nM

Structure (SMILES): O=C1CCC(N2Cc3cc(CN[C@H]4CC5CCC4CC5)ccc3C2=O)C(=O)N1 (stereo partly drawn) [Example 95, 3-(5-((((S)-bicyclo[2.2.2]octan-2-yl)amino)methyl)-1-oxoisoindolin-2-yl)piperidine-2,6-dione]
DC50 (IKZF1): > 10000 nM
Dmax (IKZF2): 49%
DC50 (IKZF2): 361 nM

Structure (SMILES): NC(=O)C1CCCC(NCc2ccc3c(c2)CN(C2CCC(=O)NC2=O)C3=O)C1 (stereo not drawn) [Example 96, (1,3-cis)-3-(((2-(2,6-dioxopiperidin-3-yl)-1-oxoisoindolin-5-yl)methyl)amino)cyclohexane-1-carboxamide]
Dmax (IKZF1): 66%
DC50 (IKZF1): 3800 nM
Dmax (IKZF2): 61%
DC50 (IKZF2): 3800 nM

Structure (SMILES): O=C1CCC(N2Cc3cc(CNC4CCCC(CO)C4)ccc3C2=O)C(=O)N1 (stereo not drawn) [Example 97, 3-(5-((((1,3-trans)-3-(hydroxymethyl)cyclohexyl)amino)methyl)-1-oxoisoindolin-2-yl)piperidine-2,6-dione]
Dmax (IKZF1): 64%
DC50 (IKZF1): 5100 nM
Dmax (IKZF2): 66%
DC50 (IKZF2): 1800 nM
